Results: PubChem BioAssay AID1963975 (Molecular Pharmacology Branch, DTP, NCI, 2024)

Tested on: 624824-186-R-J2-PDC multicell spheroids, viability
Test: Anticancer human tumor 624824-186-R-J2-PDC patient-derived colon adenocarcinoma cell line growth inhibition [PI3K]
Conditions: for viability, T/C: stronger effect = lower value; active = viability on the fitted dose curve at most 10% of control; inactive = the rest
Text: Combinatorial screen of targeted agents with the PI3K inhibitors inavolisib, alpelisib, duvelisib, and copanlisib in multi-cell type tumor spheroids
A high-throughput screen of multi-cell type tumor spheroids was designed to identify active combinations of targeted small molecules and PI3K pathway inhibitors. Complex spheroids include a stromal component modeled by human endothelial cells (HUVEC) and fibroblasts modeled by human mesenchymal stem cells (MSCs). The concentration ranges selected for each drug and investigational agent were based upon clinically achievable concentrations if the clinical Cmax of the agent was known.
Compounds. The drugs and investigational agents: inavolisib (NSC800729), alpelisib (NSC765974), duvelisib (NSC772469), copanlisib (NSC816437), ipatasertib (NSC767898), afuresertib (NSC778305), talazoparib (NSC767125), sapanisertib (NSC764658), selumetinib (NSC741078), tovorafenib (DAY101, NSC766906), vemurafenib (NSC761431), ravoxertinib (NSC781343), sotorasib (NSC818433), MRTX1133 (NSC 836407), abemaciclib (NSC 768073), palbociclib (NSC758247), venetoclax (NSC 766270), SY5609 (NSC837396), enzalutamide (NSC755605), and darolutamide (NSC825331), were obtained from the National Cancer Institute (NCI) Developmental Therapeutics Program Chemical Repository. The FDA-approved anticancer drug set is available from the NCI Developmental Therapeutics Program. […] The stock solutions were prepared in dimethyl sulfoxide (DMSO, Sigma-Aldrich, St. Louis, MO, cat. D2650) at 800-fold the tested concentration and stored at -70 degrees C prior to their use. All drugs and investigational agents were tested over a range starting from a high concentration at or near the clinical Cmax and decreasing in half-log increments. If the clinical Cmax for an agent had not been determined, the highest concentration tested was 10 microM.
Cell Culture. All cells were maintained in an incubator at 37 degrees C and 5% CO2 with 95% humidity. The PDC lines were cultured according to standard operating procedures established by the NCI PDMR (https://pdmr.cancer.gov/sops/default.htm). All PDCs were thawed and cultured in Matrigel-coated flasks prepared with a working solution of 1X Ham's F-12 nutrient mix, without supplementation (Invitrogen, Waltham, MA, cat. 11765054), 100 U/mL penicillin-streptomycin (Invitrogen, cat. 15140122), and 2.5% Matrigel (Corning Inc., Corning, NY, cat. 354248) for the first three passages. The 354836-022-R-J1-PDC, 475296-252-R-J1-PDC, and 997726-040-R-J2-PDC lines were cultured in 6A media, which includes advanced DMEM/F-12 (Thermo Fisher Scientific, cat. 12634028), 10 mM HEPES (Thermo Fisher Scientific, cat. 15630080), 1X GlutaMAX supplement (Thermo Fisher Scientific, cat. 35050061), 0.1 mg/mL primocin (InvivoGen, San Diego, CA, cat. ant-pm-2), 10% defined fetal bovine serum, heat inactivated (HyClone Laboratories Inc., Logan, UT, cat. SH30070.03HI), 50% L-WRN conditioned media (ATCC, cat. CRL-3276), 1.25 mM N-Acetyl-L-cysteine (Sigma-Aldrich, cat. A9165), 10 mM nicotinamide (Sigma-Aldrich, cat. N0636), 1X B-27 supplement (Thermo Fisher Scientific, cat. 17504044), 1X N-2 supplement (Thermo Fisher Scientific, cat. 17502048), and 10 microM Y-27632 dihydrochloride (Tocris Bioscience, Bristol, United Kingdom, cat. 1254). The 624824-186-R-J2-PDC line was cultured in 6C/Colon 1B media, which includes all 6A media components plus 50 ng/mL human EGF recombinant protein (Thermo Fisher Scientific, cat. PHG0311). […]

[1] = curve of first compound, second compound 0.00316 µM
[2] = curve of first compound, second compound 0.01 µM
[3] = curve of first compound, second compound 0.0316 µM
[4] = curve of first compound, second compound 0.1 µM
[5] = curve of first compound, second compound 0.316 µM
[6] = curve of first compound, second compound 1 µM
[7] = second compound 0.00316 µM, first compound 0.0316 µM
[8] = second compound 0.00316 µM, first compound 0.1 µM
[9] = second compound 0.00316 µM, first compound 0.316 µM
[10] = second compound 0.00316 µM, first compound 1 µM
[11] = second compound 0.00316 µM, first compound 3.16 µM
[12] = second compound 0.00316 µM, first compound 10 µM
[13] = second compound 0.01 µM, first compound 0.0316 µM
[14] = second compound 0.01 µM, first compound 0.1 µM
[15] = second compound 0.01 µM, first compound 0.316 µM
[16] = second compound 0.01 µM, first compound 1 µM
[17] = second compound 0.01 µM, first compound 3.16 µM
[18] = second compound 0.01 µM, first compound 10 µM
[19] = second compound 0.0316 µM, first compound 0.0316 µM
[20] = second compound 0.0316 µM, first compound 0.1 µM
[21] = second compound 0.0316 µM, first compound 0.316 µM
[22] = second compound 0.0316 µM, first compound 1 µM
[23] = second compound 0.0316 µM, first compound 3.16 µM
[24] = second compound 0.0316 µM, first compound 10 µM
[25] = second compound 0.1 µM, first compound 0.0316 µM
[26] = second compound 0.1 µM, first compound 0.1 µM
[27] = second compound 0.1 µM, first compound 0.316 µM
[28] = second compound 0.1 µM, first compound 1 µM
[29] = second compound 0.1 µM, first compound 3.16 µM
[30] = second compound 0.1 µM, first compound 10 µM
[31] = second compound 0.316 µM, first compound 0.0316 µM
[32] = second compound 0.316 µM, first compound 0.1 µM
[33] = second compound 0.316 µM, first compound 0.316 µM
[34] = second compound 0.316 µM, first compound 1 µM
[35] = second compound 0.316 µM, first compound 3.16 µM
[36] = second compound 0.316 µM, first compound 10 µM
[37] = second compound 1 µM, first compound 0.0316 µM
[38] = second compound 1 µM, first compound 0.1 µM
[39] = second compound 1 µM, first compound 0.316 µM
[40] = second compound 1 µM, first compound 1 µM
[41] = second compound 1 µM, first compound 3.16 µM
[42] = second compound 1 µM, first compound 10 µM
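Note: spheroids exposed to agents for 7 days before viability read.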
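Throughout, for viability, T/C: 100% = DMSO vehicle treated spheroids.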

CC(C)NCC(C(=O)N1CCN(c2ncnc3c2C(C)CC3O)CC1)c1ccc(Cl)cc1 (centres undefined) + COc1c(OCCCN2CCOCC2)ccc2c3n(c(=NC(=O)c4cnc(N)nc4)nc12)CCN3
inactive: viability, T/C [7] 117% | viability, T/C [8] 85% | viability, T/C [9] 81.3% | viability, T/C [10] 89.2% | viability, T/C [11] 78.7% | viability, T/C [12] 75.2% | viability, T/C [13] 97.2% | viability, T/C [14] 96.4% | viability, T/C [15] 85.7% | viability, T/C [16] 77.4% | viability, T/C [17] 87.4% | viability, T/C [18] 79.8% | viability, T/C [19] 91.6% | viability, T/C [20] 84.5% | viability, T/C [21] 73.6% | viability, T/C [22] 89.7% | viability, T/C [23] 70.5% | viability, T/C [24] 78.3% | viability, T/C [25] 76% | viability, T/C [26] 75.5% | viability, T/C [27] 68.7% | viability, T/C [28] 63.2% | viability, T/C [29] 77.4% | viability, T/C [30] 64.7% | viability, T/C [31] 60.1% | viability, T/C [32] 66% | viability, T/C [33] 62.1% | viability, T/C [34] 67.3% | viability, T/C [35] 62.3% | viability, T/C [36] 66.3% | viability, T/C [37] 58.6% | viability, T/C [38] 54.3% | viability, T/C [39] 62.4% | viability, T/C [40] 61.7% | viability, T/C [41] 65% | viability, T/C [42] 56.5%
> 10 µM: IC50 [1] | IC50 [2] | IC50 [3] | IC50 [4] | IC50 [5] | IC50 [6]

CC1(C)CCC(CN2CCN(c3ccc(C(=O)NS(=O)(=O)c4ccc(NCC5CCOCC5)c([N+](=O)[O-])c4)c(Oc4cnc5[nH]ccc5c4)c3)CC2)=C(c2ccc(Cl)cc2)C1 + CC(Nc1ccc2c(c1)OCCn1cc(N3C(=O)OCC3C(F)F)nc1-2)C(N)=O
> 10 µM: IC50 [1] | IC50 [2] | IC50 [3] | IC50 [4] | IC50 [5] | IC50 [6]
inactive: viability, T/C [7] 88.5% | viability, T/C [8] 86.8% | viability, T/C [9] 104% | viability, T/C [10] 96.9% | viability, T/C [11] 89.1% | viability, T/C [12] 77.4% | viability, T/C [13] 93.3% | viability, T/C [14] 81.3% | viability, T/C [15] 123% | viability, T/C [16] 93.7% | viability, T/C [17] 75.5% | viability, T/C [18] 69% | viability, T/C [19] 81.4% | viability, T/C [20] 90.5% | viability, T/C [21] 99.9% | viability, T/C [22] 72.7% | viability, T/C [23] 74.5% | viability, T/C [24] 79.1% | viability, T/C [25] 72.7% | viability, T/C [26] 66.9% | viability, T/C [27] 79.1% | viability, T/C [28] 66.9% | viability, T/C [29] 81.1% | viability, T/C [30] 56.6% | viability, T/C [31] 79.6% | viability, T/C [32] 74.2% | viability, T/C [33] 94.9% | viability, T/C [34] 77.4% | viability, T/C [35] 79.1% | viability, T/C [36] 63% | viability, T/C [37] 87.1% | viability, T/C [38] 93.3% | viability, T/C [39] 79.3% | viability, T/C [40] 86% | viability, T/C [41] 94.4% | viability, T/C [42] 77.8%

C#Cc1c(F)ccc2cc(O)cc(-c3ncc4c(N5CC6CCC(C5)N6)nc(OCC56CCCN5CC(F)C6)nc4c3F)c12 (centres undefined) + Cc1nc(NC(=O)N2CCCC2C(N)=O)sc1-c1ccnc(C(C)(C)C(F)(F)F)c1
> 10 µM: IC50 [3] | IC50 [4] | IC50 [5] | IC50 [6] | IC50 (curve of first compound, second compound 3.16 µM) | IC50 (curve of first compound, second compound 10 µM)
inactive: viability, T/C [19] 86.3% | viability, T/C [20] 82.9% | viability, T/C [21] 70.8% | viability, T/C [22] 80.9% | viability, T/C [23] 96.7% | viability, T/C [24] 71% | viability, T/C [25] 90.9% | viability, T/C [26] 83.5% | viability, T/C [27] 73% | viability, T/C [28] 76.6% | viability, T/C [29] 88.6% | viability, T/C [30] 60.4% | viability, T/C [31] 74.4% | viability, T/C [32] 67.2% | viability, T/C [33] 81.1% | viability, T/C [34] 84.2% | viability, T/C [35] 70.9% | viability, T/C [36] 73.2% | viability, T/C [37] 97% | viability, T/C [38] 82.7% | viability, T/C [39] 76.1% | viability, T/C [40] 82.1% | viability, T/C [41] 79.8% | viability, T/C [42] 82.2% | viability, T/C (second compound 3.16 µM, first compound 0.0316 µM) 78.3% | viability, T/C (second compound 3.16 µM, first compound 0.1 µM) 83.8% | viability, T/C (second compound 3.16 µM, first compound 0.316 µM) 69.5% | viability, T/C (second compound 3.16 µM, first compound 1 µM) 81.8% | viability, T/C (second compound 3.16 µM, first compound 3.16 µM) 81.2% | viability, T/C (second compound 3.16 µM, first compound 10 µM) 71.5% | viability, T/C (second compound 10 µM, first compound 0.0316 µM) 73.7% | viability, T/C (second compound 10 µM, first compound 0.1 µM) 74.2% | viability, T/C (second compound 10 µM, first compound 0.316 µM) 60% | viability, T/C (second compound 10 µM, first compound 1 µM) 58.5% | viability, T/C (second compound 10 µM, first compound 3.16 µM) 58% | viability, T/C (second compound 10 µM, first compound 10 µM) 56.3%

Cc1nc(NC(=O)N2CCCC2C(N)=O)sc1-c1ccnc(C(C)(C)C(F)(F)F)c1 (centres undefined)
inactive: viability, T/C (compound 0.1 µM) 83.4% [middle of 8 runs] | viability, T/C (compound 10 µM) 80.8% [middle of 8 runs]
> 10 µM: IC50 (compound alone, run of 06/12/2023)

CC(C)n1nc(-c2ccc3oc(N)nc3c2)c2c(N)ncnc21
> 0.1 µM: IC50 (curve of compound)
inactive: viability, T/C (compound 0.00316 µM) 79.1% [middle of 4 runs] | viability, T/C (compound 0.01 µM) 82.6% [middle of 4 runs] | viability, T/C (compound 0.0316 µM) 76.4% [middle of 4 runs] | viability, T/C (compound 0.1 µM) 79.5% [middle of 4 runs]
